Experimental data published in patent publication US12139481B2, “Compositions comprising macrocycle derivatives incorporating bridged macrocycles and methods of producing and using same” (Southwestern Oklahoma State University, priority 2015, dated 2024).
Read-outs that look alike come from different tables or passages of the source.

Legend:
[1] = system: Cryptococcus neoformans ATCC 90113; test: Antimicrobial microdilution assay against Cryptococcus neoformans (modified CLSI/NCCLS, optical density); type: cell-based; settings: for X more potent than Amphotericin B: C. neoformans, ratio of molar IC50 to Amphotericin B
Method in brief: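 Fungicidal endpoint taken by subculturing 5 μL from each clear well onto agar, MFC being the lowest concentration with no regrowth. Duplicate wells of serially diluted compound (20% DMSO/saline) in RPMI pH 6.0, read at 630 nm pre- and post-incubation, under modified CLSI methods. IC50 means 50% growth inhibition against controls.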

[2] = system: C. krusei ATCC 6258; test: Antifungal broth dilution assay against C. krusei (modified CLSI); type: cell-based, Candida krusei; settings: for X more potent than Amphotericin B: C. krusei, ratio of molar IC50 to amphotericin B; for C. krusei IC50 / IC50: in vitro; for IC50: read-out: C. krusei IC50 (mol/L)
Description: (§1) General Experimental Procedures. All organisms were obtained from the American Type Culture Collection (Manassas, VA) and include the fungi Candida albicans ATCC 90028, C. glabrata ATCC 90030, C. krusei ATCC 6258, and Cryptococcus neoformans ATCC 90113, and the bacteria Staphylococcus aureus ATCC 29213 and methicillin-resistant S. aureus ATCC 33591 (MRS). All organisms were tested using modified versions of the CLSI (formerly NCCLS) methods. For all organisms, optical density was used to monitor growth (NCCLS, Reference Method for Broth Dilution Antifungal Susceptibility Testing of Yeasts; Approved Standard M27-A2. National Committee on Clinical Laboratory Standards, 2002 22 (15); and NCCLS, Methods for Dilution Antimicrobial Susceptibility Tests for Bacteria that Grow Aerobically; Approved Standard, Seventh Edition M7-A7. National Committee on Clinical Laboratory Standards, 2006. 26(2)).
(§2) Samples (dissolved in DMSO) were serially-diluted in 20% DMSO/saline and transferred (10 μL) in duplicate to 96 well flat bottom microplates. Inocula were prepared by correcting the OD630 of microbe suspensions in incubation broth [RPMI 1640/0.2% dextrose/0.03% glutamine/MOPS @ pH 6.0 (Cellgro) for Candida spp., Sabouraud Dextrose for C. neoformans, and cation-adjusted Mueller-Hinton (Difco) @ pH 7.3 for Staphylococcus spp. to afford an assay volume of […] and final target inocula of: Candida spp. and C. neoformans: 1.5×10^3, and Staphylococcus spp.: 5.0×10^5 CFU/ml. Final sample test concentrations were 1/100th the DMSO stock concentration. […] All organisms were read at either 530 nm using the Biotek Powerwave XS plate reader (Bio-Tek Instruments, Vermont) prior to and after incubation: Candida spp. at 35° C. for 46-50 h, Staphylococcus spp. at 35° C. for 16-20 h, and C. neoformans at 35° C. for 70-74 h. IC50s (concentrations that afford 50% inhibition relative to controls) were calculated using XLfit 4.2 software (IDBS, Alameda, CA) using fit model 201. The MIC is defined as the lowest test concentration that allows no detectable growth. Minimum fungicidal or bactericidal concentrations were determined by removing 5 μl from each clear (or blue) well, transferring to fresh media, and incubating as previously mentioned. The MFC/MBC is defined as the lowest test concentration that kills the organism (allows no growth).
(§3) Primary Analysis. Samples were tested in duplicate at one test concentration (50 μg/mL), and percent inhibitions were calculated relative to blank and growth controls. Samples showing 50% inhibition in at least one test organism were selected for dose response (Secondary) studies.
(§4) Secondary Analysis. Extracts from the Primary Assay, and first-run pure compounds and column fractions were tested in duplicate at 3 test concentrations (5-fold dilutions). Samples dissolved to 20 mg/mL in DMSO were tested at 200, 40, and 8 μg/mL. Samples dissolved to 2 mg/mL in DMSO were tested at 20, 4, and 0.8 μg/mL.

[3] = system: L. donovani promastigotes; test: Antileishmanial Alamar Blue assay on promastigotes; type: cell-based, Leishmania donovani; settings: for X more potent than Pentamidine: L. donovani, ratio of molar IC50 to Pentamidine; for L. donovani IC50 / IC50: promastigotes, 48 hours, Alamar Blue; for IC50: read-out: L. donavani IC50
Method in brief: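 Alamar Blue fluorescence (544/590 nm) quantified growth after 48 hours at 26° C of compound-treated promastigotes. Parasites were seeded at 5×10^5/mL in RPMI 1640 plus 10% FCS; drug range 50-3.1 μg/mL, and IC50 derived by plotting percent growth against test concentration.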

[4] = system: C. glabrata ATCC 90030; test: Antifungal broth dilution assay against C. glabrata (modified CLSI); type: cell-based, Candida glabrata; settings: for C. glabrata IC50 / IC50: in vitro; for IC50: converted with molecular weight; for X more potent than Amphotericin B: molar IC50 ratio versus amphotericin B
Description: as §1, §2, §3, §4

[5] = in vitro, C. neoformans ATCC 90113
[6] = in vitro, C. neoformans ATCC 90113, read-out: C. neoformans IC50 (mol/L)

Row | Molecule | X more potent than Amphotericin B [1] | C. neoformans IC50 [1, 5] [µg/mL] | IC50 [1, 6] [µM] | X more potent than Amphotericin B [2] | C. krusei IC50 [2] [µg/mL] | IC50 [2] [µM] | X more potent than Pentamidine [3] | L. donovani IC50 [3] [µg/mL] | IC50 [3] [µM] | C. glabrata IC50 [4] [µg/mL] | IC50 [4] [µM] | X more potent than Amphotericin B [4] | IC50 ([1]; read-out: IC50 against C. neoformans) [µM] | IC50 ([1]; in vitro, C. neoformans ATCC 90113, HCl salt, read-out: C. neoformans IC50 (mol/L)) [µM]
1 | O=[N+]([O-])c1ccc(CC2CNCCN(Cc3ccc(CN4CCCN5CCN(CCCNCC4)CC5)cc3)CCCN3CCN(CC3)C2)cc1 (stereo not drawn) [SJA233, Bis-SB-C-Ar-NO2] | 0.30 | 0.550 | 0.797 | 0.25 | 4.070 | 5.9 | 0.12 | 30.32 | 43.9 |  |  |  |  | 
2 | c1c(CN2CCNCCN3CCN(CC3)CC2)cc(CN2CCNCCN3CCN(CC3)CC2)cc1CN1CCNCCN2CCN(CC2)CC1 [CDG29, tris-SB-cyclens] | 1.69 | 0.100 | 0.141 | 0.23 | 4.660 | 6.57 | 0.32 | 11.69 | 16.5 |  |  |  |  | 
3 | c1cc(CN2CCNCCCN3CCN(CC3)CC2)ccc1CN1CCNCCCN2CCN(CC2)CC1 [OB45, p-SB-Homocyclens] | 0.16 | ≤ 0.800 | 1.52 | 0.98 | 0.800 | 1.52 | 0.16 | 17.44 | 33.1 |  |  |  |  | 
4 | O=[N+]([O-])c1ccc(CC2CNCCN(Cc3ccc(CN4CCCN5CCN(CCCNCC4)CC5)cc3)CCCN3CCN(CC3)C2)cc1.[Cu+2].[Cu+2].[O-][Cl+3]([O-])([O-])[O-].[O-][Cl+3]([O-])([O-])[O-].[O-][Cl+3]([O-])([O-])[O-].[O-][Cl+3]([O-])([O-])[O-] (stereo not drawn) [SJA234, [Cu2(bis-SB-C-Ar-NO2)(ClO4)4]] | 0.15 | 1.910 | 1.57 | 0.40 | 4.550 | 3.75 | 0.21 | 30.31 | 24.9 |  |  |  |  | 
5 | [Zn3(tris-CB-Cyclams)(OAc)3][PF6]3•2.4NH4PF6 [BNS26] | 0.07 | 6.840 | 3.36 | 2.49 | 1.220 | 0.6 |  |  |  | 2.140 | 1.05 | 1.35 |  | 
6 | CC(=O)[O-].CC(=O)[O-].F[P-](F)(F)(F)(F)F.F[P-](F)(F)(F)(F)F.O.[Ni+2].[Ni+2].c1cc(CN2CCNCCN3CCN(CC3)CC2)cc(CN2CCNCCN3CCN(CC3)CC2)c1 [OB35, [Ni2(m-SB-Cyclens)(OAc)2][PF6]2•H2O] | 0.31 | ≤ 0.800 | 0.768 | 1.95 | 0.800 | 0.768 |  |  |  |  |  |  |  | 
7 | CN1CCN2CCN(CC1)CCN(Cc1nc3ccccc3n1Cc1ccc([N+](=O)[O-])cc1)CC2 [SJA230, CB-BINO2-cyclen] | 0.01 | 7.930 | 16.6 | 0.09 | 7.690 | 16.1 |  |  |  |  |  |  |  | 
8 | CC(=O)[O-].F[P-](F)(F)(F)(F)F.F[P-](F)(F)(F)(F)F.F[P-](F)(F)(F)(F)F.[Mn+2].[NH4+].[NH4+].c1ccc(CN2CCN3CCCN(CC2)CCN(Cc2ccccc2)CC3)cc1 [AW036, [Mn(Bn2PBCyclen)(C2H3O2)]PF6•2NH4PF6] | 0.03 | 7.070 | 7.23 | 0.29 | 4.990 | 5.11 | 0.20 | 25.41 | 26 |  |  |  |  | 
9 | CC(=O)[O-].CC(=O)[O-].F[P-](F)(F)(F)(F)F.F[P-](F)(F)(F)(F)F.O.O.[Cu+2].[Cu+2].c1cc(CN2CCNCCN3CCN(CC3)CC2)cc(CN2CCNCCN3CCN(CC3)CC2)c1 [OB34, [Cu2(m-SB-Cyclens)(OAc)2][PF6]2•2H2O] | 0.32 | ≤ 0.800 | 0.748 | 0.28 | 5.780 | 5.4 |  |  |  |  |  |  |  | 
10 | C[C@@H]1[C@H](O)[C@@H](C)/C=C/C=C/C=C/C=C/C=C/C=C/C=C/[C@H](O[C@@H]2O[C@H](C)[C@@H](O)[C@H](N)[C@@H]2O)C[C@@H]2O[C@](O)(C[C@@H](O)C[C@@H](O)[C@H](O)CC[C@@H](O)C[C@@H](O)CC(=O)O[C@H]1C)C[C@H](O)[C@H]2C(=O)O [AMB, Amphotericin B, reference compound] | 1.00 | 0.220 |  | 1.00 | 1.380 | 1.49 |  |  |  | 1.310 | 1.42 | 1.00 | 0.238 | 
11 | Cl.Cl.Cl.Cl.Cl.Cl.Cl.Cl.c1cc(CN2CCNCCCN3CCN(CC3)CC2)cc(CN2CCNCCCN3CCN(CC3)CC2)c1 [OB46B, m-SB-homocyclens HCl salt] | 0.75 | 0.280 |  | 0.16 | 7.420 | 9.06 | 0.13 | 34.26 | 41.9 |  |  |  |  | 0.318
12 | CC(=O)[O-].F[P-](F)(F)(F)(F)F.[Zn+2].c1ccc(CN2CCN3CCCN(CC2)CCN(Cc2ccccc2)CC3)cc1 [AW041, [Zn(Bn2PBCyclen)(C2H3O2)]PF6] | 0.02 | 7.330 |  | 0.19 | 5.170 |  | 0.15 | 22.92 |  |  |  |  |  | 
